From patent US20160130245A1, “6,8-SUBSTITUTED NARINGENIN DERIVATIVE AND USE THEREOF” (SUN YAT-SEN UNIVERSITY, priority 2012, published 2016)

Test system: mice with cough induced from aqueous ammonia
Assay: Cough relieving effect of singly administered compounds in mice with cough induced from aqueous ammonia
Format: in vivo, male KM mice
Settings: coughs counted in 3 min after 15 s atomized 25% aqueous ammonia, 1 hr after administration; intragastric gavage or intraperitoneal injection, 0.2 ml/10 g body weight; example compounds 7.44 μmol/ml, codeine phosphate 0.47 μmol/ml; mean ± spread
From the text: II. Test on Cough Relieving Effect of Singly Administered Example Compounds of the Present Invention in Mice with Cough Induced from Aqueous Ammonia
1. Test animals: male KM mice (available from Guangdong Medical Laboratory Animal Center, Certificate No.: SCXK (Guangdong) 2008-0002, No. 0113738).
2. Test groups and treatment with drugs: Blank control group: treatment with 50% (v/v) PEG400 in physiological saline.
Treatment group with codeine phosphate as positive control—Codeine phosphate (Lott 20091212) is manufactured by Qinghai Pharmaceutical Co., Ltd. Before test, powdered codeine phosphate was added to 50% (v/v) PEG400 in physiological saline, to formulate a 0.47 μmol/ml solution.
Eligible male KM mice were randomly designated to a blank control group, and treatment groups with codeine phosphate as positive control and with example compounds, according to […].
The animals in each group were administered by intragastric gavage or intraperitoneal injection at a dosage of 0.2 ml/10 g of body weight, and placed in a cough inducing chamber 1 hr after administration. 1 ml of 25% concentrated aqueous ammonia was added to an atomizing cup and atomized for 15 s (at a rate of 0.15 ml/min). The coughs in 3 min were counted (during the typical cough, the mouth was opened and the head was lowered, which were accompanied by quivering of the neck and frequently a forward rushing).
Statistical analysis of data—Statistical analysis of all the data was conducted by SPSS 17.0 after the outliers were excluded by t test. Analysis of variance was performed by one-way ANOVA, multiple comparisons between the blank control group and each treatment group were carried out by Dunnett test, and the pairwise multiple comparisons between each treatment group and the codeine phosphate group were conducted by Duncan test.

Row | SMILES | Coughs
1 | CCCc1c(O)c(Cl)c(O)c2c1OC(c1ccc(O)cc1)CC2=O (centres unmarked) [Example 6, 6-chloro-2,3-dihydro-5,7-dihydroxy-2-(4-hydroxyphenyl)-8-propylchromen-4-one] | 9.1 ± 3.9
2 | C=CCc1c(O)c(Br)c2c(c1O)C(=O)CC(c1ccc(O)cc1)O2 (centres unmarked) [Example 4, 6-allyl-8-bromo-2,3-dihydro-5,7-dihydroxy-2-(4-hydroxyphenyl)chromen-4-one] | 11.0 ± 4.1
3 | C=CCc1c(O)c(Cl)c2c(c1O)C(=O)CC(c1ccc(O)cc1)O2 (centres unmarked) [Example 5, 6-allyl-8-chloro-2,3-dihydro-5,7-dihydroxy-2-(4-hydroxyphenyl)chromen-4-one] | 11.8 ± 7.3
4 | C=CCc1c(O)c(Br)c(O)c2c1OC(c1ccc(O)cc1)CC2=O (centres unmarked) [Example 3, 8-allyl-6-bromo-2,3-dihydro-5,7-dihydroxy-2-(4-hydroxyphenyl)chromen-4-one] | 11.2 ± 6.2
5 | O=CCc1c(O)cc(O)c2c1O[C@H](c1ccc(O)cc1)CC2=O [Example 11, Naringenin-8-acetaldehyde] | 11.4 ± 6.5
6 | COc1ccc2c3c1O[C@H]1[C@@H](O)C=C[C@H]4[C@@H](C2)N(C)CC[C@@]341 [codeine phosphate, reference compound] | 10.8 ± 3.5
7 | O=C(O)Cc1c(O)cc(O)c2c1O[C@H](c1ccc(O)cc1)CC2=O [Example 15, Naringenin-8-acetic acid] | 8.3 ± 5.8
8 | C=CCc1c(O)c(I)c2c(c1O)C(=O)CC(c1ccc(O)cc1)O2 (centres unmarked) [Example 10, 8-iodo-2,3-dihydro-5,7-dihydroxy-2-(4-hydroxyphenyl)-6-allylchromen-4-one] | 12.2 ± 4.0
9 | CCCc1c(O)cc2c(c1O)C(=O)CC(c1ccc(O)cc1)O2 (centres unmarked) [Example 2, 6-n-propyl-2,3-dihydro-5,7-dihydroxy-2-(4-hydroxyphenyl)chromen-4-one] | 12.4 ± 4.6
10 | O=CCc1c(O)cc2c(c1O)C(=O)C[C@@H](c1ccc(O)cc1)O2 [Example 12, Naringenin-6-acetaldehyde] | 9.3 ± 4.3
11 | O=C(O)Cc1c(O)c(Cl)c2c(c1O)C(=O)C[C@@H](c1ccc(O)cc1)O2 [Example 14, 8-chloro-naringenin-6-acetic acid] | 9.3 ± 3.9
12 | C=CCc1c(O)c(O)c2c(c1O)C(=O)CC(c1ccc(O)cc1)O2 (centres unmarked) [Example 8, 6-allyl-2,3-dihydro-5,7,8-Trihydroxy-2-(4-hydroxyphenyl)chromen-4-one] | 10.2 ± 2.6
13 | CCCc1c(O)c(Cl)c2c(c1O)C(=O)CC(c1ccc(O)cc1)O2 (centres unmarked) [Example 9, 8-Chloro-2,3-dihydro-5,7-dihydroxy-2-(4-hydroxyphenyl)-6-propylchromen-4-one] | 10.7 ± 4.2
14 | O=C(O)Cc1c(O)c(Cl)c(O)c2c1O[C@H](c1ccc(O)cc1)CC2=O [Example 13, 6-chloro-naringenin-8-acetic acid] | 7.4 ± 3.4
15 | C=CCc1c(O)c(Cl)c(O)c2c1OC(c1ccc(O)cc1)CC2=O (centres unmarked) [Example 7, 8-allyl-6-chloro-2,3-dihydro-5,7-dihydroxy-2-(4-hydroxyphenyl)chromen-4-one] | 10.5 ± 5.8

Same assay, conditions: relative to blank group (17.8 ± 5.4 coughs); same dosing as Coughs; example compounds 7.44 μmol/ml, codeine phosphate 0.47 μmol/ml, 0.2 ml/10 g

Row | SMILES | Cough relieving rate
16 | CCCc1c(O)c(Cl)c(O)c2c1OC(c1ccc(O)cc1)CC2=O (centres unmarked) [Example 6, 6-chloro-2,3-dihydro-5,7-dihydroxy-2-(4-hydroxyphenyl)-8-propylchromen-4-one] | 49.06%
17 | C=CCc1c(O)c(Br)c2c(c1O)C(=O)CC(c1ccc(O)cc1)O2 (centres unmarked) [Example 4, 6-allyl-8-bromo-2,3-dihydro-5,7-dihydroxy-2-(4-hydroxyphenyl)chromen-4-one] | 38.03%
18 | C=CCc1c(O)c(Cl)c2c(c1O)C(=O)CC(c1ccc(O)cc1)O2 (centres unmarked) [Example 5, 6-allyl-8-chloro-2,3-dihydro-5,7-dihydroxy-2-(4-hydroxyphenyl)chromen-4-one] | 33.49%
19 | C=CCc1c(O)c(Br)c(O)c2c1OC(c1ccc(O)cc1)CC2=O (centres unmarked) [Example 3, 8-allyl-6-bromo-2,3-dihydro-5,7-dihydroxy-2-(4-hydroxyphenyl)chromen-4-one] | 37.28%
20 | O=CCc1c(O)cc(O)c2c1O[C@H](c1ccc(O)cc1)CC2=O [Example 11, Naringenin-8-acetaldehyde] | 35.78%
21 | COc1ccc2c3c1O[C@H]1[C@@H](O)C=C[C@H]4[C@@H](C2)N(C)CC[C@@]341 [codeine phosphate, reference compound] | 39.60%
22 | O=C(O)Cc1c(O)cc(O)c2c1O[C@H](c1ccc(O)cc1)CC2=O [Example 15, Naringenin-8-acetic acid] | 53.31%
23 | C=CCc1c(O)c(I)c2c(c1O)C(=O)CC(c1ccc(O)cc1)O2 (centres unmarked) [Example 10, 8-iodo-2,3-dihydro-5,7-dihydroxy-2-(4-hydroxyphenyl)-6-allylchromen-4-one] | 31.24%
24 | CCCc1c(O)cc2c(c1O)C(=O)CC(c1ccc(O)cc1)O2 (centres unmarked) [Example 2, 6-n-propyl-2,3-dihydro-5,7-dihydroxy-2-(4-hydroxyphenyl)chromen-4-one] | 30.16%
25 | O=CCc1c(O)cc2c(c1O)C(=O)C[C@@H](c1ccc(O)cc1)O2 [Example 12, Naringenin-6-acetaldehyde] | 47.59%
26 | O=C(O)Cc1c(O)c(Cl)c2c(c1O)C(=O)C[C@@H](c1ccc(O)cc1)O2 [Example 14, 8-chloro-naringenin-6-acetic acid] | 47.59%
27 | C=CCc1c(O)c(O)c2c(c1O)C(=O)CC(c1ccc(O)cc1)O2 (centres unmarked) [Example 8, 6-allyl-2,3-dihydro-5,7,8-Trihydroxy-2-(4-hydroxyphenyl)chromen-4-one] | 42.64%
28 | CCCc1c(O)c(Cl)c2c(c1O)C(=O)CC(c1ccc(O)cc1)O2 (centres unmarked) [Example 9, 8-Chloro-2,3-dihydro-5,7-dihydroxy-2-(4-hydroxyphenyl)-6-propylchromen-4-one] | 39.82%
29 | O=C(O)Cc1c(O)c(Cl)c(O)c2c1O[C@H](c1ccc(O)cc1)CC2=O [Example 13, 6-chloro-naringenin-8-acetic acid] | 58.43%
30 | C=CCc1c(O)c(Cl)c(O)c2c1OC(c1ccc(O)cc1)CC2=O (centres unmarked) [Example 7, 8-allyl-6-chloro-2,3-dihydro-5,7-dihydroxy-2-(4-hydroxyphenyl)chromen-4-one] | 40.85%

Test system: not given
Assay: not given
Settings: not given

Row | SMILES | melting point
31 | CCCc1c(O)c(Cl)c(O)c2c1OC(c1ccc(O)cc1)CC2=O (centres unmarked) [Example 6, 6-chloro-2,3-dihydro-5,7-dihydroxy-2-(4-hydroxyphenyl)-8-propylchromen-4-one] | 175 to 176 °C
32 | C=CCc1c(O)c(Br)c2c(c1O)C(=O)CC(c1ccc(O)cc1)O2 (centres unmarked) [Example 4, 6-allyl-8-bromo-2,3-dihydro-5,7-dihydroxy-2-(4-hydroxyphenyl)chromen-4-one] | 158 to 160 °C
33 | C=CCc1c(O)c(Cl)c2c(c1O)C(=O)CC(c1ccc(O)cc1)O2 (centres unmarked) [Example 5, 6-allyl-8-chloro-2,3-dihydro-5,7-dihydroxy-2-(4-hydroxyphenyl)chromen-4-one] | 158 to 160 °C
34 | C=CCc1c(O)c(Br)c(O)c2c1OC(c1ccc(O)cc1)CC2=O (centres unmarked) [Example 3, 8-allyl-6-bromo-2,3-dihydro-5,7-dihydroxy-2-(4-hydroxyphenyl)chromen-4-one] | 203 to 205 °C
35 | O=CCc1c(O)cc(O)c2c1O[C@H](c1ccc(O)cc1)CC2=O [Example 11, Naringenin-8-acetaldehyde] | 150 to 155 °C
36 | O=C(O)Cc1c(O)cc(O)c2c1O[C@H](c1ccc(O)cc1)CC2=O [Example 15, Naringenin-8-acetic acid] | 245 to 247 °C
37 | C=CCc1c(O)c(I)c2c(c1O)C(=O)CC(c1ccc(O)cc1)O2 (centres unmarked) [Example 10, 8-iodo-2,3-dihydro-5,7-dihydroxy-2-(4-hydroxyphenyl)-6-allylchromen-4-one] | 218 to 220 °C
38 | CCCc1c(O)cc2c(c1O)C(=O)CC(c1ccc(O)cc1)O2 (centres unmarked) [Example 2, 6-n-propyl-2,3-dihydro-5,7-dihydroxy-2-(4-hydroxyphenyl)chromen-4-one] | 173 to 175 °C
39 | O=CCc1c(O)cc2c(c1O)C(=O)C[C@@H](c1ccc(O)cc1)O2 [Example 12, Naringenin-6-acetaldehyde] | 178 to 180 °C
40 | O=C(O)Cc1c(O)c(Cl)c2c(c1O)C(=O)C[C@@H](c1ccc(O)cc1)O2 [Example 14, 8-chloro-naringenin-6-acetic acid] | 185 to 186 °C
41 | C=CCc1c(O)c(O)c2c(c1O)C(=O)CC(c1ccc(O)cc1)O2 (centres unmarked) [Example 8, 6-allyl-2,3-dihydro-5,7,8-Trihydroxy-2-(4-hydroxyphenyl)chromen-4-one] | 95 to 100 °C
42 | CCCc1c(O)c(Cl)c2c(c1O)C(=O)CC(c1ccc(O)cc1)O2 (centres unmarked) [Example 9, 8-Chloro-2,3-dihydro-5,7-dihydroxy-2-(4-hydroxyphenyl)-6-propylchromen-4-one] | 175 to 176 °C
43 | O=C(O)Cc1c(O)c(Cl)c(O)c2c1O[C@H](c1ccc(O)cc1)CC2=O [Example 13, 6-chloro-naringenin-8-acetic acid] | 185 to 186 °C
44 | C=CCc1c(O)c(Cl)c(O)c2c1OC(c1ccc(O)cc1)CC2=O (centres unmarked) [Example 7, 8-allyl-6-chloro-2,3-dihydro-5,7-dihydroxy-2-(4-hydroxyphenyl)chromen-4-one] | 215 to 216 °C
